In brackets after ≈: the same amount, converted by molar mass. Where two headings read alike, the source gives them in different places.
Experiments:
[1] = test system: B. cenocepacia J2315; test: MIC, 2-fold microdilution, resazurin method; format: cell-based, Burkholderia cenocepacia; conditions: for MIC: Burkholderia cenocepacia; for activity compared with C109, in words: SAR statements, against both bacteria and the purified enzyme
Procedure: (§1) Burkholderia cenocepacia strains, Escherichia coli ATCC 25922, Pseudomonas aeruginosa PAO1, and Staphylococcus aureus ATCC 25923 were grown in Luria-Bertani (LB) medium (Difco), if not differently specified, with shaking at 200 rpm, or on LB agar, at 37°C.
(§2) The microtiter plates were incubated at 37°C for 48 (for B. cenocepacia) or 24 h (for all the other strains) and growth was determined by the resazurin method (Martin et al., [2006]). A solution of resazurin sodium salt (Sigma Aldrich) was prepared at 0.01% in distilled water and filter-sterilized. Thirty microliter of resazurin solution were added to each well after 1 or 2 days of incubation at 37°C, and the microtiters were re-incubated at the same temperature for 4 h. The MIC was defined as the lowest concentration of the drug that prevented a change in color from blue to pink, which indicates bacterial growth.
(§3) Three independent biological replicates were used for each MIC determination.

[2] = test system: E. coli ATCC 25922; test: MIC, 2-fold microdilution, resazurin method; format: cell-based; conditions: Escherichia coli, ATCC25922
Procedure: as §1, §2, §3

[3] = test system: P. aeruginosa PAO1; test: MIC, 2-fold microdilution, resazurin method; format: cell-based; conditions: Pseudomonas aeruginosa, PAO1
Procedure: as §1, §2, §3

[4] = test system: S. aureus ATCC 25923; test: MIC, 2-fold microdilution, resazurin method; format: cell-based, Staphylococcus aureus; conditions: for MIC: Staphylococcus aureus, ATCC25923; for spectrum of activity, in words: S. aureus vs Gram-negative species
Procedure: as §1, §2, §3

[5] = molecular target: Burkholderia cenocepacia purified FtsZ protein (Burkholderia cenocepacia, UniProt B4E5Y7); test: biochemical; format: biochemical; conditions: for Inhibition of Bc FtsZ At 100 μM: 100 μM compound; for Inhibition of Bc FtsZ At 100 μM / Inhibits B. cenocepacia FtsZ GTPase at 100µM?: Yes/No; for Inhibits B. cenocepacia FtsZ GTPase at 100µM?: Supplementary Table 1
Burkholderia cenocepacia purified FtsZ protein, sequence (B4E5Y7 entry or part of it): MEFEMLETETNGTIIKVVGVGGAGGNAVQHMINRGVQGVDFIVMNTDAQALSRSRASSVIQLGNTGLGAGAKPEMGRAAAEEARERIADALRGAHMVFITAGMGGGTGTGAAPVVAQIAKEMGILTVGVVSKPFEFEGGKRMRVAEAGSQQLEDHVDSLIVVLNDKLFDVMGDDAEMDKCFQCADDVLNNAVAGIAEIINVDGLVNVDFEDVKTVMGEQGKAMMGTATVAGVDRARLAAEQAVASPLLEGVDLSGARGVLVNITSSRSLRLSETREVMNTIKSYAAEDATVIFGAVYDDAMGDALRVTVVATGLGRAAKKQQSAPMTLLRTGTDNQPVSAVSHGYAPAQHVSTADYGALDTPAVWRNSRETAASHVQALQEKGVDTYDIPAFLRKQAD
Procedure: All the recombinant FtsZ proteins were expressed at 20°C overnight in E. coli BL21(DE3) cells, upon induction with 0.5 mM IPTG, and purified using the same protocol assessed for the wild-type B. cenocepacia FtsZ (Hogan et al., [2018]).
GTPase enzyme activity was determined using a pyruvate kinase/L-lactic dehydrogenase (PK/LDH) spectrophotometric coupled assay (Ingerman and Nunnari, [2005]). The assays were performed at 30°C, in a reaction mixture containing […] Hepes pH 7.5, 5 mM MgCl2, 5 mM KCl, 10 U PK/LDH, 0.25 mM NADH, 0.25 mM PEP, and 5–10 μM FtsZ, and initiated by the addition of 0.5 mM GTP. Alternatively, GTPase activity was determined by measuring the release of phosphate using the malachite green assay (Baykov et al., [1988]).
(1) A[I]=A[0]×(1-[I]/[I]+IC50)
where A[I] is the enzyme activity at inhibitor concentration [I] and A[0] is the enzyme activity without inhibitor.

[6] = J2315, LB, 48 h, read-out: MIC B. cenocepacia J2315
[7] = J2315, Supplementary Table 1, read-out: MIC (µg/ml) B. cenocepacia J2315
[8] = LB, 24 h, read-out: MIC E. coli 25922
[9] = Supplementary Table 1, read-out: MIC (µg/ml) E. coli 25922
[10] = LB, 24 h, read-out: MIC P. aeruginosa PAO1
[11] = Supplementary Table 1, read-out: MIC (µg/ml) P. aeruginosa PAO1
[12] = LB, 24 h, read-out: MIC S. aureus 25923
[13] = Supplementary Table 1, read-out: MIC (µg/ml) S. aureus 25923

| Compound | MIC [1, 6] [µg/mL] | MIC [1, 7] [µg/mL] | MIC [2, 8] [µg/mL] | MIC [2, 9] [µg/mL] | MIC [3, 10] [µg/mL] | MIC [3, 11] [µg/mL] | MIC [4, 12] [µg/mL] | MIC [4, 13] [µg/mL] | IC50 [5] [µM] | Inhibition of Bc FtsZ At 100 μM [5] | Inhibits B. cenocepacia FtsZ GTPase at 100µM? [5] | melting point [°C] | activity compared with C109, in words [1] | spectrum of activity, in words [4] | MIC ([1]; J2315, 48 h, read-out: MIC B. cenocepacia J2315) [µg/mL] | MIC ([1]; J2315, read-out: MIC (µg/ml) B. cenocepacia J2315) [µg/mL] |
| --- | --- | --- | --- | --- | --- | --- | --- | --- | --- | --- | --- | --- | --- | --- | --- | --- |
| CN(C)C(=S)Sc1ccc2nsnc2c1[N+](=O)[O-] [compound 10126130] | > 128 | > 128 | 512 (≈ 1700 µM) | 512 (≈ 1700 µM) | > 128 | > 128 | 32 (≈ 107 µM) | 32 (≈ 107 µM) | 10 | Yes | Yes | 137 to 139 | – | – | – | – |
| CCOC(=O)CCSc1ccc2nsnc2c1[N+](=O)[O-] [compound 10226047] | > 512 | > 512 | > 512 | > 512 | > 128 | > 128 | > 512 | > 512 | – | No | No | 89 to 91 | completely loss of activity | – | – | – |
| N#CSc1cc(SC#N)c2nsnc2c1[N+](=O)[O-] [compound 10626056] | > 64 | > 64 | > 512 | > 512 | > 128 | > 128 | 8 (≈ 27.1 µM) | 8 (≈ 27.1 µM) | 52 | Yes | Yes | 167 to 169 | – | showed activity only against S. aureus | – | – |
| CCCCCSc1ccc2nsnc2c1[N+](=O)[O-] [compound 10726015] | > 64 | > 64 | > 512 | > 512 | > 128 | > 128 | 512 (≈ 1810 µM) | 512 (≈ 1810 µM) | – | No | No | 116 to 118 | – | – | – | – |
| N#CSc1cc(-c2ccc([N+](=O)[O-])cc2)c2nsnc2c1[N+](=O)[O-] [compound 11026176] | – | – | > 512 | > 512 | > 128 | > 128 | 4 (≈ 11.1 µM) | 4 (≈ 11.1 µM) | 17 | Yes | Yes | – | – | showed activity only against S. aureus | > 512 | > 512 |
| CCOc1cc(SC#N)c2nsnc2c1[N+](=O)[O-] [compound 11026177] | > 512 | > 512 | > 512 | > 512 | 64 (≈ 227 µM) | 64 (≈ 227 µM) | 4 (≈ 14.2 µM) | 4 (≈ 14.2 µM) | 19 | Yes | Yes | 128 to 129 | – | showed activity only against S. aureus | – | – |
| COc1cc(SC#N)c2nsnc2c1[N+](=O)[O-] [compound 11126009] | > 128 | > 128 | > 512 | > 512 | > 128 | > 128 | 8 (≈ 29.8 µM) | 8 (≈ 29.8 µM) | 4 | Yes | Yes | 143 to 145 | – | showed activity only against S. aureus | – | – |
| CC(C)Oc1cc(SC#N)c2nsnc2c1[N+](=O)[O-] [compound 11126010] | > 128 | > 128 | > 512 | > 512 | > 128 | > 128 | 4 (≈ 13.5 µM) | 4 (≈ 13.5 µM) | 15 | Yes | Yes | 116 to 118 | – | showed activity only against S. aureus | – | – |
| O=[N+]([O-])c1c(SC(=S)N2CCSCC2)ccc2nsnc12 [compound 11126015] | > 128 | > 128 | > 512 | > 512 | > 128 | > 128 | 32 (≈ 89.3 µM) | 32 (≈ 89.3 µM) | 36 | Yes | Yes | 140 to 142 | – | showed activity only against S. aureus | – | – |
| O=C(O)CSc1ccc2nsnc2c1[N+](=O)[O-] [compound 11426177] | > 128 | > 128 | > 512 | > 512 | – | – | 256 (≈ 944 µM) | 256 (≈ 944 µM) | – | No | No | 215 to 217 | not active against B. cenocepacia | – | – | – |
| CCOC(=O)COc1ccc2nsnc2c1[N+](=O)[O-] [compound 11726041] | > 256 | > 256 | > 512 | > 512 | – | – | > 256 | > 256 | – | No | No | 131 to 133 | completely loss of activity | – | – | – |
| CCOC(=O)CNc1ccc2nsnc2c1[N+](=O)[O-] [compound 11726042] | > 256 | > 256 | > 512 | > 512 | – | – | > 256 | > 256 | – | No | No | 169 to 171 | completely loss of activity | – | – | – |
| O=[N+]([O-])c1c(Sc2ncc[nH]2)ccc2nsnc12 [compound 11726256] | 128 (≈ 458 µM) | 256 (≈ 917 µM) | 128 (≈ 458 µM) | 128 (≈ 458 µM) | > 256 | > 256 | 8 (≈ 28.6 µM) | 8 (≈ 28.6 µM) | > 100 | – | Yes | 213 to 215 | – | showed activity only against S. aureus | – | – |
| COC(=O)C[S+]([O-])c1ccc2nsnc2c1[N+](=O)[O-] (stereo not drawn) [compound 11726257] | 16 (≈ 53.1 µM) | 16 (≈ 53.1 µM) | 8 (≈ 26.6 µM) | 8 (≈ 26.6 µM) | 128 (≈ 425 µM) | 128 (≈ 425 µM) | 8 (≈ 26.6 µM) | 8 (≈ 26.6 µM) | 3 | Yes | Yes | 179 to 181 | activity on B. cenocepacia similar to C109 | – | – | – |
| COC(=O)CSc1cc(SCC(=O)OC)c2nsnc2c1[N+](=O)[O-] [compound 11726258] | 256 (≈ 657 µM) | 256 (≈ 657 µM) | > 256 | > 256 | > 256 | > 256 | 256 (≈ 657 µM) | 256 (≈ 657 µM) | 15 | Yes | Yes | 141 to 143 | – | – | – | – |
| COC(=O)CS(=O)(=O)c1ccc2nsnc2c1[N+](=O)[O-] [compound 11826109] | 256 (≈ 807 µM) | 256 (≈ 807 µM) | 128 (≈ 403 µM) | 128 (≈ 403 µM) | > 256 | > 256 | 16 (≈ 50.4 µM) | 16 (≈ 50.4 µM) | 30 | Yes | Yes | 123 to 125 | loss of activity | – | – | – |

— publication PMC7154053, “Chemical, Metabolic, and Cellular Characterization of a FtsZ Inhibitor Effective Against Burkholderia cenocepacia” (Frontiers in Microbiology, 2020)
